Measured values published in paper PMC2792609, “Effect of methomyl on hepatic mixed function oxidases in rats” (Indian Journal of Pharmacology, 2008).
Read-outs that look alike come from different tables or passages of the source.

Key:
[1] = system: Aminopyrine N-demethylase; experiment: Hepatic microsomal aminopyrine N-demethylase activity; assay type: in vivo, rat
Method: (§1) Adult male rats (weighing 200-230 g) were divided into four groups of six animals each. Group 1 received an equivalent amount of saline and served as control. Animals from group 2, 3, and 4 were given methomyl 1, 2, and 4 mg/kg body weight i.p. respectively, between 8: 00 a.m. and 9:00 a.m., for three consecutive days. In the second set of experiments, adult male rats were divided into four groups. Animals from group 2, 3, and 4 were injected with 4 mg/kg body weight methomyl for one, three, and five successive days. The volume injected into the rats of body weight 200 g was 1 ml. In another experiment, adult female rats and old male rats (weighing 350-450 g, 8 months old) were divided into two groups of six animals each. Group 2 of each category received methomyl (4 mg/kg body weight, i.p., for three successive days), and group 1 of each category received an equivalent amount of saline and served as the control group.
(§2) The rats were sacrificed by cervical dislocation, 24 hours after the last dose. Their livers were perfused in situ with ice cold 1.15% KCl containing 0.05 mM EDTA, rapidly excised, blotted dry, weighed, minced and homogenized with two volumes of ice cold 0.25 M sucrose solution, in a Potter-Elvehjem type homogenizer. The homogenate was centrifuged at 10,000 × g for 10 min, in a refrigerated centrifuge (REMI C-24). The microsomes were isolated by the procedure described by of Cinti et al.[4] The microsomal pellet was suspended in phosphate buffer (0.1 M, pH 7.4) and the suspension was used for the microsomal enzyme assays. Microsomal protein content was measured by the Biuret method, using bovine serum albumin as the standard.[5]
The microsomal electron transport components (cytochrome P450 and cytochrome b5) were determined using Hitachi UV-Visible double beam recording spectrophotometer, by the procedure of Omura and Sato.[67] Cytochrome c reductase activity was determined using the method recommended by Masters et al.[8] Aminopyrine N-demethylase activity was assayed according to the procedure described by Schenkman et al.[9] Formaldehyde liberated during N-demethylation was estimated by the procedure described by Nash.[10] Aniline hydroxylase assay was performed using the procedure reported by Govindwar and Dalvi.[11]

Male Wistar rats = details: 4 mg/kg; cited from earlier work
mixed function oxidases = details: quails; cited from earlier work
Serum cholinesterase = target: T1, Serum cholinesterase (Rattus norvegicus, UniProt Q9JKC1); experiment: Serum cholinesterase activity; assay type: in vivo; details: female rats; for Serum cholinesterase: for 3 days; for depression of acetyl cholinesterase activity: 3 days
T1 construct: from tissue; host or cells: rat serum
T1 sequence (Q9JKC1 24-597): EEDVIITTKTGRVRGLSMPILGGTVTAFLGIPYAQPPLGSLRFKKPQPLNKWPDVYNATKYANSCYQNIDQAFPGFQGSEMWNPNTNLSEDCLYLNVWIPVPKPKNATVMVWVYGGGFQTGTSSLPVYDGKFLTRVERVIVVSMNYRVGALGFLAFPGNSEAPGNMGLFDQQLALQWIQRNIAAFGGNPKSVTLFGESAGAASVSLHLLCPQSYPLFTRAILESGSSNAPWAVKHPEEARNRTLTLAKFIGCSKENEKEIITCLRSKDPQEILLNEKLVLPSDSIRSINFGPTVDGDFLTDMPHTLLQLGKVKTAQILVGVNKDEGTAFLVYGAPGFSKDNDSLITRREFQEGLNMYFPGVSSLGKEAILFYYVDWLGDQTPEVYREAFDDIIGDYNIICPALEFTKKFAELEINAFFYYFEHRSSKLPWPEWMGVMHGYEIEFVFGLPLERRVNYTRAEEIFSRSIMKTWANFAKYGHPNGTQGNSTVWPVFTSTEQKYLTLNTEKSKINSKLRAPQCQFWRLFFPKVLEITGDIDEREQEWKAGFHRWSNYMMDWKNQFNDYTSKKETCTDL

microsomal protein = assay type: in vivo, rat; details: for decrease in hepatic microsomal protein content: 3 days, vs control
Method: as §1, §2

Serum total protein [2] = assay type: in vivo, rat; details: female rats; for Serum total protein: for 3 days; for decrease in total protein content: 3 days
[3] = classification; cited from earlier work
Serum total protein [4] = assay type: in vivo, rat; details: for decrease in total protein content: 3 days
Method: as §1

red cell ChE = details: methomyl aerosol, male rats, repeated inhalation; cited from earlier work
old male rats = details: cited from earlier work
[5] = adult male rats, 4 mg/kg i.p., for 3 days
[6] = adult rats, 4 mg/kg i.p., 1 day of treatment
[7] = adult rats, 4 mg/kg i.p., 3 days of treatment
[8] = adult rats, 4 mg/kg i.p., 5 days of treatment
[9] = old male rats, 4 mg/kg body weight, i.p., three days

CNC(=O)ON=C(C)SC [methomyl, S-methyl-N-(methyl carbomyl)-thioacetimidate]
decrease in the activity of aminopyrine N-demethylase ([1]; adult male rats, 4 mg/kg i.p., 3 days, vs control): 40% | decrease in activity of aminopyrine N-demethylase ([1]; adult male rats, 4 mg/kg i.p., five days, vs control): 31% | Aminopyrine N-demethylase [1, 5]: 2.3 nmole of formaldehyde liberated/min/mg microsomal protein | decrease in activity of aminopyrine N-demethylase ([1]; adult male rats, 4 mg/kg i.p., one day, vs control): 31% | decrease in activity of aminopyrine N-demethylase ([1]; adult male rats, 4 mg/kg i.p., three days, vs control): 51% | Aminopyrine N-demethylase [1, 6]: 3.11 nmole of formaldehyde liberated/min/mg microsomal protein | Aminopyrine N-demethylase [1, 7]: 2.20 nmole of formaldehyde liberated/min/mg microsomal protein | Aminopyrine N-demethylase [1, 8]: 3.09 nmole of formaldehyde liberated/min/mg microsomal protein | decrease in aminopyrine N-demethylase ([1]; old male rat, 4 mg/kg i.p., three days, vs control): 50% | Aminopyrine N-demethylase [1, 9]: 2.26 nmole of formaldehyde liberated/min/mg microsomal protein | duration of maximum severity (Male Wistar rats): about 30 min | time to development of signs of toxicity (Male Wistar rats): ≤ 2 min | time to maximum severity (muscle fasciculation and convulsions) (Male Wistar rats): 5 to 10 min | time until free from obvious toxicity (Male Wistar rats): ≤ 90 min | activity of mixed function oxidases (mixed function oxidases): inhibited | Serum cholinesterase (Serum cholinesterase; 1 mg/kg body weight i.p.): 1343 u/l | depression of acetyl cholinesterase activity (Serum cholinesterase; 1 mg/kg i.p.): 46% | Serum cholinesterase (Serum cholinesterase; 2 mg/kg body weight i.p.): 1193 u/l | depression of acetyl cholinesterase activity (Serum cholinesterase; 2 mg/kg i.p.): 52% | Microsomal protein (microsomal protein; adult female rats, 4 mg/kg body weight, i.p., three days): 10.90 mg/g liver | decrease in hepatic microsomal protein content (microsomal protein; adult male rats, 1 mg/kg i.p.): 28% | Microsomal protein (microsomal protein; adult male rats, 1 mg/kg i.p., for 3 days): 13.53 mg/g liver | decrease in hepatic microsomal protein content (microsomal protein; adult male rats, 2 mg/kg i.p.): 31% | Microsomal protein (microsomal protein; adult male rats, 2 mg/kg i.p., for 3 days): 12.83 mg/g liver | decrease in hepatic microsomal protein content (microsomal protein; adult male rats, 4 mg/kg i.p.): 19% | Microsomal protein (microsomal protein; [5]): 15.10 mg/g liver | change in microsomal protein (microsomal protein; adult male rats, 4 mg/kg i.p., one, three and five days): No significant change | Microsomal protein (microsomal protein; [6]): 15.77 mg/g liver | Microsomal protein (microsomal protein; [7]): 16.00 mg/g liver | Microsomal protein (microsomal protein; [8]): 12.20 mg/g liver | Microsomal protein (microsomal protein; [9]): 18.80 mg/g liver | Serum total protein (Serum total protein [2]; 1 mg/kg body weight i.p.): 1.90 g/dL | decrease in total protein content (Serum total protein [2]; 1 mg/kg i.p.): 14% | Serum total protein (Serum total protein [2]; 2 mg/kg body weight i.p.): 1.96 g/dL | decrease in total protein content (Serum total protein [2]; 2 mg/kg i.p.): 11% | pesticide toxicity category [3]: category-1 | Serum total protein (Serum total protein [4]; female rats, 4 mg/kg body weight i.p., for 3 days): 1.70 g/dL | decrease in total protein content (Serum total protein [4]; female rats, 4 mg/kg i.p.): 23% | Serum total protein (Serum total protein [4]; male rats, 1 mg/kg body weight i.p., for three days): 2.02 g/dL | decrease in total protein content (Serum total protein [4]; male rats, 1 mg/kg i.p.): 13% | Serum total protein (Serum total protein [4]; male rats, 2 mg/kg body weight i.p., for three days): 1.80 g/dL | decrease in total protein content (Serum total protein [4]; male rats, 2 mg/kg i.p.): 22% | Serum total protein (Serum total protein [4]; male rats, 4 mg/kg body weight i.p., for three days): 1.60 g/dL | decrease in total protein content (Serum total protein [4]; male rats, 4 mg/kg i.p.): 30% | effect on red cell ChE (red cell ChE): no cumulative effect | hemoglobin content, hematocrit value, erythrocyte, and leucocyte count (old male rats): Decreased
